According to patent US6632602B1, “Plant sugar sensors and uses thereof” (The General Hospital Corporation, priority 1996, dated 2003):

What was measured:
[1] = tested on: yeast hxk1/hxk2 double mutant (DBY2219); test: Functional complementation of yeast hxk1/hxk2 double mutant on fructose; format: cell-based, Saccharomyces cerevisiae; details: for Complementation of yeast double mutant, growth on fructose as sole carbon source: cDNA transformed into DBY2219
Source text: To elucidate the role of HXK as a sugar sensor, the Arabidopsis HXK genes were cloned by functional complementation using a yeast Saccharomyces cerevisiae hxk1/hxk2 double mutant (designated DBY2219), a strain which lacked HXK activity (Ma and Botstein, Mol. Cell. Biol. 6, 4046 (1986)). Using this approach, we identified two cDNAs, designated AtHXK1 (FIG. 1F; SEQ ID NO: 3, GenBank accession no. U28214) and AtHXK2 (FIG. 1G; SEQ ID NO: 4, GenBank accession no. U28215). These cDNAs, which were 2.0 and 1.9 kb in length respectively, were both found reproducibly to complement the yeast double mutant and to allow its growth on a selection plate containing fructose as the sole carbon source. […] In contrast, mutants transformed with the plasmid vector pFL61 alone were incapable of growth on the same selection media (FIG. 1A) (Minet et al., Plant J. 2, 417 (1992)).

[2] = tested on: yeast hxk1/hxk2 double mutant (DBY2219); test: Yeast glucose repression assay on 2-dGlc/raffinose plate; format: cell-based, Saccharomyces cerevisiae; details: 2% raffinose, 2-deoxyglucose (0.02%)
Source text: To confirm this hypothesis, we sought to increase the expression of a heterologous HXK that would provide excess catalytic activity for sugar metabolism, but no regulatory function. The yeast HXK2 (YHXK2) has been proposed to have catalytic and regulatory functions, and appeared to be a good candidate for this experiment (Entian, Mol. Gen. Genet. 178, 633 (1980); Entian and Frshlich, J. Bacteriol. 158, 29 (1984); Entian et al., Mol. Cell. Biol. 5, 3035 (1985)). We first determined whether the putative regulatory functions of the YHXK2 and AtHXK were interchangeable by examining the effect of increasing the expression of AtHXK on glucose repression in a yeast hxk1/hxk2 double mutant (DBY2219). The assay was based on the YHXK2-mediated growth inhibition (i.e., glucose repression) of wild-type yeast cells on a 2-dGlc/raffinose plate. The glucose repression assay was performed using a YP plate with 2% raffinose as the carbon source in the presence of 2-deoxyglucose (0.02%) as described by Ma et al. (Mol. Cell. Biol. 9, 5643 (1989)). The glucose analog, 2-dGlc, mimics glucose by inducing strong repression of the invertase gene (SUC2), but is itself unavailable for use as a carbon source.

Arabidopsis seedlings [3] = test: Sugar sensitivity bioassay of light-grown seedlings on 6% glucose or 0.8 mM 2-dGlc plates; format: in vivo; details: control plants, constant light; 6% glucose or low concentration (0.8 mM) 2-dGlc
Source text: To test the hypothesis that AtHXKs act as sugar sensors in intact plants, transgenic plant models were established by introducing sense and antisense genes to alter AtHXK levels. Wild-type (Bensheim) Arabidopsis plants were transformed with binary vectors carrying gene fusions with the CaMV35S promoter and sense AtHXK1 (sense-AtHXK1), sense AtHXK2 (sense-AtHXK2), antisense AtHXK1 (anti-AtHXK1), or antisense AtHXK2 (anti-AtHXK2) using a standard Agrobacterium-mediated root transformation protocol (Czako et al., Mol. Gen. Genet. 235, 33 (1992)). The presence of a transgene was determined by NPTII expression and resultant kanamycin resistance, and by DNA blot analysis. Several transgenic lines of the T3 generation homozygous for the sense or antisense transgenes were selected for further analyses.
Sugar sensitivity of transgenic plants was examined by performing bioassays using 6% glucose or 0.8 mM 2-deoxyglucose (2-dGlc), a nonmetabolizable glucose analog. […]
The scored phenotypes shown in Table 1 were determined based on the examination of light-grown, 7-day-old seedlings which were germinated on 1/2 MS plates containing either 6% glucose or 0.8 mM of 2-dGlc. Sugar insensitive (Ins), hypersensitive (Hyp), and ambiguous (A) phenotypes were scored and tabulated.

Arabidopsis seedlings [4] = test: Osmotic control experiments on 6% mannitol or 6% 3-MeGlc plates; format: in vivo; details: plated on 6% of the substance
Source text: To rule out the possibility that the difference in sugar sensing between transgenic and control plants was due to an osmotic effect, mannitol and 3-O-methylglucose (3-MeGlc) were used in control experiments.

| Compound | Complementation of yeast double mutant, growth on fructose as sole carbon source [1] | Glucose repression in hxk1/hxk2 strain [2] | Difference between control and transgenic plants (Arabidopsis seedlings [4]) | other results |
| --- | --- | --- | --- | --- |
| AtHXK2: Arabidopsis hexokinase cDNA, SEQ ID NO: 4, GenBank accession no. U28215 | complement | did not restore glucose repression | – | – |
| AtHXK1: Arabidopsis hexokinase cDNA, SEQ ID NO: 3, GenBank accession no. U28214 | complement | did not restore glucose repression | – | Catalytic activity in yeast transformation experiment ([1]; data not shown): higher catalytic activity than AtHXK2 |
| O=CC[C@@H](O)[C@H](O)[C@H](O)CO [2-dGlc, 2-deoxyglucose] | – | – | – | Effect of sugar on control (wild-type) seedling development (Arabidopsis seedlings [3]): greening of cotyledons was found to be inhibited |
| OC[C@@H](O)[C@@H](O)[C@H](O)[C@H](O)CO [mannitol] | – | – | No apparent difference | – |
| CO[C@@H]([C@H](O)[C@H](O)CO)[C@@H](O)C=O [3-MeGlc, 3-O-methylglucose] | – | – | No apparent difference | – |
